Measured values published in patent US9480259B2, “Pyrazolopyrans having herbicidal and pharmaceutical properties” (BASF SE, priority 2012, dated 2016).

Target: Arabidopsis thaliana SHMT
Test: SHMT activity assay (ED50 SHMT), coupled with N5,N10-CH2-THF dehydrogenase, NADH at 340 nm
Assay type: biochemical
Conditions: Arabidopsis thaliana SHMT enzyme assay; values given as upper bounds
Procedure: Determination of the ED50 SHMT was carried out as described hereinunder.
Purification of Arabidopsis thaliana SHMT
The following buffers were used during the purification protocol:
Buffer A (Lysis and Wash Buffer): • 20 mM Na-Phosphat (pH 7,4) • 500 mM NaCI • 40 mM Imidazole • 1.0 mM L-Serine • 0.5 mM Pyridoxal-5-phosphate • 0.5 mM DTT
Buffer B (Elution Buffer): • 20 mM Na-Phosphat (pH 7,4) • 500 mM NaCl • 250 mM Imidazole • 1.0 mM L-Serine • 0.5 mM Pyridoxal-5-phosphate • 0.5 mM DTT
All procedures were conducted at 4° C. or on ice. Pellets were suspended in Buffer A containing 1 mg/ml DNAse +Complete EDTA-free protease inhibitor tablet. Cells were lysed using sonication or a French Press device, using standard settings. Lysis was centrifuged at 40000×g for 25 minutes. The supernatant was filtered (0.22 μM) before loading onto a Ni-NTA column.
A gravity flow column containing Ni-NTA resin was equilibrated with 10 CV Buffer A and loaded with filtered cell lysate. The column was then washed with 10 CV Buffer A. Elution was afforded using Buffer B and collected manually as mini-factions. EDTA was added after elution to a final concentration of 1 mM. Fractions were pooled on the basis of the correct band for SHMT visualised via SDS-PAGE and staining.
SHMT Assay Buffer: • 50 mM KH2PO4 (pH 7,4) • 2.0 mM NAD+ • 7.5 mM DTT • 0.3 mM Tetrahydrofolic acid • 4% DMSO
Reaction Start: 20 mM L-Serine
The rate of N5,N10-CH2-THF formation catalyzed by SHMT was monitored at 340 nm by coupling with excess N5,N10-CH2-THF dehydrogenase, which converts NAD+to NADH. Reactions were initiated by adding 20 mM L-Serine. Inhibition of initial velocity was determined by adding various inhibitors of the SHMT reaction and monitored as described. Reactions were measured in a Bio Tek micro titer plate reader following the change in absorption with the formation of NADH for 30 mimnutes.

`Cc1n[nH]c2c1C(c1cc(Cl)cc(N(C)C(=O)Cc3nnn[nH]3)c1)(C1CCC1)C(C#N)=C(N)O2` (stereo not drawn) [Compound 2.699] and `Cc1n[nH]c2c1C(c1cc(Br)cc(N(C)C(=O)Cc3nnn[nH]3)c1)(C1CCC1)C(C#N)=C(N)O2` (stereo not drawn) [Compound 2.730] cannot be ordered by EC50: < 100 nM for the first, < 10 nM for the second.

`Cc1n[nH]c2c1C(c1cc(CCc3nnn[nH]3)cc(-c3nnn[nH]3)c1)(C1CCC1)C(C#N)=C(N)O2` (stereo not drawn) [Compound 2.655] and `Cc1n[nH]c2c1C(c1cc(-c3nnn[nH]3)cc(N(C)C(=O)CCCC#N)c1)(C1CCC1)C(C#N)=C(N)O2` (stereo not drawn) [Compound 2.690] cannot be ordered by EC50: < 10000 nM for the first, < 1000 nM for the second.

`Cc1n[nH]c2c1C(c1cc(C#N)cc(NS(C)(=O)=O)c1)(C1CCC1)C(C#N)=C(N)O2` (stereo not drawn) [Compound 2.704] and `Cc1n[nH]c2c1C(c1cc(C#N)cc(NS(=O)(=O)C(F)(F)F)c1)(C1CCC1)C(C#N)=C(N)O2` (stereo not drawn) [Compound 2.733] cannot be ordered by EC50: < 100 nM for the first, < 100 nM for the second.

`Cc1n[nH]c2c1C(c1ccc(CCCC#N)c(Cl)c1)(C1CCC1)C(C#N)=C(N)O2` (stereo not drawn) [Compound 2.673] and `Cc1n[nH]c2c1C(c1cccc(Br)c1)(C(C)(F)F)C(C#N)=C(N)O2` (stereo not drawn) [Compound 2.702] cannot be ordered by EC50: < 10 nM for the first, < 100 nM for the second.

In the case of `Cc1n[nH]c2c1C(c1cc(C#N)cc(-c3cccc(C(=O)O)c3)c1)(C1(F)COC1)C(C#N)=C(N)O2` (stereo not drawn) [Compound 2.656], the EC50 is reported as < 10 nM.

Same assay, conditions: Table 2, Arabidopsis thaliana SHMT enzyme assay; values given as upper bounds

`Cc1n[nH]c2c1C(c1cc(Cl)cc(C#N)c1)(C1CC=CC1)C(C#N)=C(N)O2` (stereo not drawn) [Compound 2.368] and `Cc1n[nH]c2c1C(c1cc(C#N)cc(-c3ccc(Cl)cc3)c1)(C1CCC1)C(C#N)=C(N)O2` (stereo not drawn) [Compound 2.333] cannot be ordered by EC50: < 10 nM for the first, < 10 nM for the second.

`CCOc1n[nH]c2c1C(c1cc(Br)cc(C#N)c1)(C1(F)CC1)C(C#N)=C(N)O2` (stereo not drawn) [Compound 2.395] and `N#CC1=C(N)Oc2[nH]nc(O)c2C1(c1cc(F)cc(Cl)c1)C1CCC1` (stereo not drawn) [Compound 2.231] cannot be ordered by EC50: < 1000 nM for the first, < 10000 nM for the second.

`Cc1n[nH]c2c1C(c1cc(Cl)cc(C(=O)O)c1)(C1CCC1)C(C#N)=C(N)O2` (stereo not drawn) [Compound 2.382] and `Cc1n[nH]c2c1C(c1cccc(S(C)(=O)=O)c1)(C1CCC1)C(C#N)=C(N)O2` (stereo not drawn) [Compound 2.313] cannot be ordered by EC50: < 100 nM for the first, < 1000 nM for the second.

`C#CCCC1(c2cc(Cl)cc(Cl)c2)C(C#N)=C(N)Oc2[nH]nc(C)c21` (stereo not drawn) [Compound 2.314] and `Cc1n[nH]c2c1C(c1cccc(C(F)F)c1)(C1CCC1)C(C#N)=C(N)O2` (stereo not drawn) [Compound 2.277] cannot be ordered by EC50: < 100 nM for the first, < 10 nM for the second.

`Cc1n[nH]c2c1C(c1cc(-c3nnn[nH]3)cc(-c3nnn[nH]3)c1)(C1CCC1)C(C#N)=C(N)O2` (stereo not drawn) [Compound 2.354] and `N#CC1=C(N)Oc2[nH]ncc2C1(c1cc(C#N)cc(C#N)c1)C1CCC1` (stereo not drawn) [Compound 2.286] cannot be ordered by EC50: < 10000 nM for the first, < 10 nM for the second.

Same assay, conditions: Table 2; values given as upper bounds

`CCC1(c2cc(C#N)cc(C(F)(F)F)c2)C(C#N)=C(N)Oc2[nH]nc(OC)c21` (stereo not drawn) [Compound 2.599] and `CCCC1(c2cc(Cl)cc(C#N)c2)C(C#N)=C(N)Oc2[nH]nc(OC)c21` (stereo not drawn) [Compound 2.602] cannot be ordered by EC50: < 1000 nM for the first, < 10000 nM for the second.

`COCc1n[nH]c2c1C(c1cccc(C(F)(F)F)c1)(C1CCC1)C(C#N)=C(N)O2` (stereo not drawn) [Compound 2.196.] and `Cc1n[nH]c2c1C(c1cc(OCc3nnn[nH]3)cc(C(F)(F)F)c1)(C1CCC1)C(C#N)=C(N)O2` (stereo not drawn) [Compound 2.474] cannot be ordered by EC50: < 1000 nM for the first, < 10 nM for the second.

`COC(=O)c1ccc(-c2cc(C#N)cc(C3(C4CCC4)C(C#N)=C(N)Oc4[nH]nc(C)c43)c2)cc1Cl` (stereo not drawn) [Compound 2.546] and `COC(=O)c1ccc(-c2cc(C#N)cc(C3(C4CCC4)C(C#N)=C(N)Oc4[nH]nc(C)c43)c2)cc1F` (racemic) [Compound 2.521] cannot be ordered by EC50: < 100 nM for the first, < 10 nM for the second.

`COc1c(F)cc(-c2cc(C#N)cc(C3(C4CCC4)C(C#N)=C(N)Oc4[nH]nc(C)c43)c2)cc1F` (stereo not drawn) [Compound 2.463] and `COC(=O)c1ccc(-c2cc(C#N)cc(C3(C4CCC4)C(C#N)=C(N)Oc4[nH]nc(C)c43)c2)cc1OC` (stereo not drawn) [Compound 2.522] cannot be ordered by EC50: < 10 nM for the first, < 10 nM for the second.

`CCC1(c2ccc(-c3ccccc3F)cc2)C(C#N)=C(N)Oc2[nH]nc(C)c21` (stereo not drawn) [Compound 2.44.] and `CCC1(c2cccc(F)c2)C(C#N)=C(N)Oc2[nH]nc(C)c21` (stereo not drawn) [Compound 2.15.] cannot be ordered by EC50: < 1000 nM for the first, < 10000 nM for the second.

`CCC1(c2ccc(F)c(C(F)(F)F)c2)C(C#N)=C(N)Oc2[nH]nc(C)c21` (stereo not drawn) [Compound 2.65.] and `CCC1(c2cc(F)c(O)c(F)c2)C(C#N)=C(N)Oc2[nH]nc(C)c21` (stereo not drawn) [Compound 2.34.] cannot be ordered by EC50: < 1000 nM for the first, < 10000 nM for the second.

`CCC1(c2ccc(NC(C)=O)cc2)C(C#N)=C(N)Oc2[nH]nc(C)c21` (stereo not drawn) [Compound 2.6.] and `CCCCCCOc1ccc(C2(CC)C(C#N)=C(N)Oc3[nH]nc(C)c32)cc1` (stereo not drawn) [Compound 2.36.] cannot be ordered by EC50: < 10000 nM for the first, < 10000 nM for the second.

`COC(=O)c1ccc(-c2cc(C#N)cc(C3(C4CCC4)C(C#N)=C(N)Oc4[nH]nc(C)c43)c2)cc1` (stereo not drawn) [Compound 2.455] and `Cc1n[nH]c2c1C(c1cc(C#N)cc(-c3ccc(C(=O)O)cc3)c1)(C1CCC1)C(C#N)=C(N)O2` (stereo not drawn) [Compound 2.460] cannot be ordered by EC50: < 100 nM for the first, < 10 nM for the second.

`CCCC1(c2cc(Cl)cc(C#N)c2)C(C#N)=C(N)Oc2[nH]nc(C(C)C)c21` (stereo not drawn) [Compound 2.584] and `CCCC1(c2cc(Cl)cc(C#N)c2)C(C#N)=C(N)Oc2[nH]nc(C)c21` (stereo not drawn) [Compound 2.533] cannot be ordered by EC50: < 10 nM for the first, < 10 nM for the second.

`Cc1n[nH]c2c1C(c1ccc(CCC#N)c(C#N)c1)(C1CCC1)C(C#N)=C(N)O2` (stereo not drawn) [Compound 2.647] and `Cc1n[nH]c2c1C(c1cc(Cl)cc(CCC(=O)O)c1)(C1CCC1)C(C#N)=C(N)O2` (stereo not drawn) [Compound 2.500] cannot be ordered by EC50: < 10 nM for the first, < 10 nM for the second.

`CCC1(c2cc(Cl)cc(Br)c2)C(C#N)=C(N)Oc2[nH]nc(C)c21` (stereo not drawn) [Compound 2.468] and `CCC1(c2cc(F)cc(Br)c2)C(C#N)=C(N)Oc2[nH]nc(C)c21` (racemic) [Compound 2.467] cannot be ordered by EC50: < 10 nM for the first, < 100 nM for the second.

`CCCC1(c2cccc(Cl)c2)C(C#N)=C(N)Oc2[nH]nc(C)c21` (stereo not drawn) [Compound 2.94.] and `CCC1(c2ccc(O)c([N+](=O)[O-])c2)C(C#N)=C(N)Oc2[nH]nc(C)c21` (stereo not drawn) [Compound 2.37.] cannot be ordered by EC50: < 1000 nM for the first, < 1000 nM for the second.

`Cc1n[nH]c2c1C(c1cc(C#N)cc(N(C)C(=O)c3cccc(C(=O)O)c3)c1)(C1CCC1)C(C#N)=C(N)O2` (stereo not drawn) [Compound 2.633] and `Cc1n[nH]c2c1C(c1cc(C#N)cc(-c3cccc(C(=O)O)c3)c1)(C1CCC1)C(C#N)=C(N)O2` (stereo not drawn) [Compound 2.461] cannot be ordered by EC50: < 100 nM for the first, < 10 nM for the second.

`Cc1n[nH]c2c1C(c1cc(Cl)cc(-c3cccc(C(=O)O)c3)c1)(C1CCC1)C(C#N)=C(N)O2` (stereo not drawn) [Compound 2.482] and `Cc1n[nH]c2c1C(c1cc(C#N)cc(-c3cccc(C(=O)O)c3)c1)(C1(F)CC1)C(C#N)=C(N)O2` (stereo not drawn) [Compound 2.511] cannot be ordered by EC50: < 10 nM for the first, < 10 nM for the second.

`COc1n[nH]c2c1C(c1cc(Cl)cc(OCC#N)c1)(C1CCC1)C(C#N)=C(N)O2` (stereo not drawn) [Compound 2.444] and `CCCC1(c2cc(Br)cc(C#N)c2)C(C#N)=C(N)Oc2[nH]nc(OC)c21` (stereo not drawn) [Compound 2.603] cannot be ordered by EC50: < 100 nM for the first, < 1000 nM for the second.

`CC(C)C1(c2cc(Cl)cc(Cl)c2)C(C#N)=C(N)Oc2[nH]nc(C3CC3)c21` (stereo not drawn) [Compound 2.136.] and `CCC1(c2ccc(OC(=O)C(C)(C)C)c(C)c2)C(C#N)=C(N)Oc2[nH]nc(C)c21` (stereo not drawn) [Compound 2.52.] cannot be ordered by EC50: < 100 nM for the first, < 1000 nM for the second.

With `CCC1(c2ccc(OS(=O)(=O)c3ccccc3)c(C)c2)C(C#N)=C(N)Oc2[nH]nc(C)c21` (stereo not drawn) [Compound 2.58.] the EC50 was < 1000 nM.

Same assay, conditions: inhibition of initial velocity of Arabidopsis thaliana SHMT

`CCC1(CCc2ccccc2)C(C#N)=C(N)Oc2[nH]nc(C)c21` (stereo not drawn) [Compound 4.76] and `CCC1(CCC2CCCCC2)C(C#N)=C(N)Oc2[nH]nc(C)c21` (racemic) [Compound 4.65] cannot be ordered by EC50: < 1000 nM for the first, < 1000 nM for the second.

`Cc1n[nH]c2c1C(c1ccc3c(c1)OC(F)(F)O3)(C1CCC1)C(C#N)=C(N)O2` (stereo not drawn) [Compound 4.25] and `Cc1n[nH]c2c1C(c1cc(Cl)c3c(c1)OCCO3)(C1CCC1)C(C#N)=C(N)O2` (stereo not drawn) [Compound 4.5] cannot be ordered by EC50: < 10 nM for the first, < 10 nM for the second.

`Cc1n[nH]c2c1C(c1cc(-c3ccccc3)cs1)(C(C)C)C(C#N)=C(N)O2` (stereo not drawn) [Compound 4.81] and `CCC1(c2cc(-c3cccs3)cs2)C(C#N)=C(N)Oc2[nH]nc(C)c21` (stereo not drawn) [Compound 4.61] cannot be ordered by EC50: < 10000 nM for the first, < 100 nM for the second.

`Cc1n[nH]c2c1C(c1ccc(-c3ccccc3C(F)(F)F)s1)(C1CCC1)C(C#N)=C(N)O2` (stereo not drawn) [Compound 4.34] and `Cc1n[nH]c2c1C(c1ccc(-c3ccccc3)s1)(C1CCC1)C(C#N)=C(N)O2` (stereo not drawn) [Compound 4.10] cannot be ordered by EC50: < 10 nM for the first, < 10 nM for the second.

`Cc1n[nH]c2c1C(c1cc(Cl)c3c(c1)OCCO3)(C(C)C)C(C#N)=C(N)O2` (stereo not drawn) [Compound 4.15] and `Cc1n[nH]c2c1C(c1ccc(-c3ccc(Cl)cc3)s1)(C1CCC1)C(C#N)=C(N)O2` (stereo not drawn) [Compound 4.20] cannot be ordered by EC50: < 10 nM for the first, < 10 nM for the second.

In the case of `Cc1n[nH]c2c1C(c1nc3ccccc3o1)(C1CCC1)C(C#N)=C(N)O2` (stereo not drawn) [Compound 4.46], the EC50 is reported as < 10 nM.
